In patent US20060088843A1 (priority 2004, published 2006):

Legend:
[1] = pI and pH of protein solutions; assay type: physicochemical
[2] = Antiviral activity in similar assays (not specified)
[3] = test system: herpesvirus; conditions: cited from earlier work
[4] = test system: Semliki Forest virus; conditions: cited from earlier work
[5] = test system: mice; assay: Toxicity assay in mice
[6] = test system: NAChR; assay type: binding

| Substance | pH of solution [1] | pI [1] | antiviral activity [2] | antiviral activity against herpes [3] | antiviral activity against Semliki Forest virus [4] | LD50 in mice ([5]; injected subcutaneously or intra-peritoneally) | time to death ([5]; injection of 1.5 mcg, 25 g mouse) | binding to native receptor [6] |
| --- | --- | --- | --- | --- | --- | --- | --- | --- |
| alpha-cobratoxin [native alpha-cobratoxin] | 10.4 | 9.6 | does not demonstrate antiviral activity | does not have any antiviral activity | does not have any antiviral activity | 1.2 µg | ≤ 25 min | – |
| autoclaved alpha-cobratoxin | – | – | – | no antiviral activity | no antiviral activity | – | – | still capable of binding to its native receptor |
